From patent publication US20260166039A1 (SCHRÖDINGER, INC., priority 2022, published 2026)

Molecular target: T1, Wee1 kinase domain (Homo sapiens, UniProt P30291)
T1 construct: Wee1 kinase domain was purchased from Carna (catalog #05-177); purchased Carna 05-177
Experiment: Wee1 Kinase Biochemical Assay (ADP-Glo)
Settings: 1 nM Wee1 enzyme, 15 uM ATP, 4 hours at 25° C
In short: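 ADP-Glo detection of ADP produced after 4 h at 25° C by 1 nM Wee1 kinase domain on 2 ng/mL poly(Lys,Tyr 4:1) with 15 uM ATP. Buffer: 40 mM Tris-HCl, 20 mM MgCl2, 0.1 mg/mL BSA, 2 mM DTT. Inhibition is relative to DMSO (high) and saturating Wee1 inhibitor (low) controls.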

T1 sequence (P30291 299-569 limits assumed): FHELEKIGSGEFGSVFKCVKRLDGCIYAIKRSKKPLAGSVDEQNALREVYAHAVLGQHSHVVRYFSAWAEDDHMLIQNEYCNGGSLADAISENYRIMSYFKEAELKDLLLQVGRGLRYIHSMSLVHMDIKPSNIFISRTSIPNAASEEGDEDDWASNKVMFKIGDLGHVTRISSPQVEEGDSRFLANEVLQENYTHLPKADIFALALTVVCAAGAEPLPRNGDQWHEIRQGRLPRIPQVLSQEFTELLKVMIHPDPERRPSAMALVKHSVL

Row | SMILES | IC50
1 | CC1(C)C[C@H]2N(c3cccc(N=S(C)(C)=O)n3)c3nc(Nc4cncnc4)ncc3[C@@]2(C)CO1 (single isomer, unassigned) [Example 817] | < 10 nM

Same assay, conditions: Wee1 kinase domain, 15 uM ATP, ADP-Glo

Row | SMILES | IC50
2 | CN1CCC(n2cc(Nc3ncc4c(n3)N(c3cccc(C(C)(C)O)n3)[C@H]3CC(C)(C)OC[C@@]43C)cn2)CC1 (single isomer, unassigned) [Example 12] | 100 to 1000 nM
3 | Cc1cc(Nc2ncc3c(n2)N(c2cccc(N=S(C)(C)=O)n2)[C@H]2CC(C)(C)OC[C@@]32C)ccc1[C@H]1COCCN1 (single isomer, unassigned) [Example 115] | 10 to 100 nM
4 | CN1CCC[C@@H]1c1ccc(Nc2ncc3c(n2)N(c2cccc(N=S(C)(C)=O)n2)[C@H]2CC(C)(C)OC[C@@]32C)cc1 (single isomer, unassigned) [Example 128] | 100 to 1000 nM
5 | CN1CCC(n2ccc(Nc3ncc4c(n3)N(c3cccc(N=S(C)(C)=O)n3)C3CC(C)(C)OCC43C)cc2=O)CC1 (single isomer, unassigned) [Example 151] | 100 to 1000 nM
6 | Cc1cc(Nc2ncc3c(n2)N(c2cccc(N=S(C)(C)=O)n2)[C@H]2CC(C)(C)OC[C@@]32C)ccc1N1CCN(C)CC1 (single isomer, unassigned) [Example 105] | 10 to 100 nM
7 | C[C@H]1COC(=O)N1c1cccc(N2c3nc(Nc4ccc(N5C[C@H]6C[C@@H]5CN6)cc4)ncc3[C@]3(C)COC(C)(C)C[C@H]23)n1 (single isomer, unassigned) [Example 276] | 10 to 100 nM
8 | CN1CC[C@@H](c2ccc(Nc3ncc4c(n3)N(c3cccc(N=S(C)(C)=O)n3)[C@H]3CC(C)(C)OC[C@@]43C)cc2)C1 (single isomer, unassigned) [Example 130] | 100 to 1000 nM
9 | CN1C[C@H]2C[C@@H]1CN2c1ccc(Nc2ncc3c(n2)N(c2cccc(N=S(C)(C)=O)n2)[C@H]2CC(C)(C)OC[C@@]32C)cc1 (single isomer, unassigned) [Example 121] | 100 to 1000 nM
10 | CC1(C)C[C@@H]2N(c3cccc(N=S(C)(C)=O)n3)c3nc(Nc4ccc(O[C@@H]5CCNC5)cc4)ncc3[C@]2(C)CO1 (single isomer, unassigned) [Example 156] | 10 to 100 nM
11 | CNCc1cccc(N2c3nc(Nc4ccc(S(C)(=O)=O)cc4)ncc3[C@]3(C)COC(C)(C)C[C@H]23)n1 (single isomer, unassigned) [Example 33] | 100 to 1000 nM
12 | CN[C@@H](Cc1ccc(Nc2ncc3c(n2)N(c2cccc(N4C(=O)OC[C@@H]4C)n2)[C@H]2CC(C)(C)OC[C@@]32C)cc1)C(=O)O (single isomer, unassigned) [Example 320] | 100 to 1000 nM
13 | CC1(C)C[C@@H]2N(c3cccc(N=S(C)(C)=O)n3)c3nc(Nc4ccc(O[C@H]5CCNC5)cc4)ncc3[C@]2(C)CO1 (single isomer, unassigned) [Example 154] | 100 to 1000 nM
14 | CC1(C)C[C@@H]2N(c3cccc(N=S(C)(C)=O)n3)c3nc(Nc4ccc(C5CNC5)nc4)ncc3[C@]2(C)CO1 (single isomer, unassigned) [Example 191] | 100 to 1000 nM
15 | CN1CCC[C@@H]1c1ccc(Nc2ncc3c(n2)N(c2cccc(N=S(C)(C)=O)n2)[C@H]2CC(C)(C)OC[C@@]32C)cn1 (single isomer, unassigned) [Example 209] | 10 to 100 nM
16 | C[C@H]1CN(c2ccc(Nc3ncc4c(n3)N(c3cccc(N5C(=O)OC[C@@H]5C)n3)[C@H]3CC(C)(C)OC[C@@]43C)cc2)CCN1C (single isomer, unassigned) [Example 314] | 10 to 100 nM
17 | CC1(C)C[C@H]2N(c3cccc(N=S(C)(C)=O)n3)c3nc(Nc4ccc5nccn5n4)ncc3[C@@]2(C)CO1 [Example 361, ((6-((4bR,8aR)-2-(imidazo[1,2-b]pyridazin-6-ylamino)-4b,7,7-trimethyl-4b,7,8,8a-tetrahydropyrano[3′,4′:4,5]pyrrolo[2,3-d]pyrimidin-9(5H)-yl)pyridin-2-yl)imino)dimethyl-l6-sulfanone] | < 10 nM
18 | CNCc1cccc(N2c3nc(Nc4ccc(C5(C)COC5)cc4)ncc3[C@]3(C)COC(C)(C)C[C@H]23)n1 (single isomer, unassigned) [Example 83] | ≥ 1000 nM
19 | CN1CCc2ccc(Nc3ncc4c(n3)N(c3cccc(N=S(C)(C)=O)n3)[C@H]3CC(C)(C)OC[C@@]43C)cc2C1 (single isomer, unassigned) [Example 110] | 10 to 100 nM
20 | CNCc1cccc(N2c3nc(Nc4ccc([C@@H]5CC(=O)N(C)C5)cc4)ncc3[C@]3(C)COC(C)(C)C[C@H]23)n1 (single isomer, unassigned) [Example 70] | 10 to 100 nM
21 | CNCc1cccc(N2c3nc(Nc4ccc([C@H]5CCC(=O)N5C)nc4)ncc3[C@@]3(C)COC(C)(C)C[C@@H]23)n1 (single isomer, unassigned) [Example 98] | < 10 nM
22 | CNCc1cccc(N2c3nc(Nc4ccc([C@@]5(C)CCN(C)C5=O)cc4)ncc3[C@]3(C)COC(C)(C)C[C@H]23)n1 (single isomer, unassigned) [Example 79] | 100 to 1000 nM
23 | C[C@H]1COC(=O)N1c1cccc(N2c3nc(Nc4ccc(N5CCN(C)CC5)nn4)ncc3[C@]3(C)COC(C)(C)C[C@H]23)n1 (single isomer, unassigned) [Example 248] | 100 to 1000 nM
24 | CNCc1cccc(N2c3nc(Nc4ccc([C@@H]5CCCO5)cc4)ncc3[C@@]3(C)COC(C)(C)C[C@@H]23)n1 (single isomer, unassigned) [Example 59] | < 10 nM

Same assay, conditions: class symbols; 1 nM Wee1 enzyme, 15 uM ATP, 4 hours at 25° C.

Row | SMILES | IC50
25 | C[C@H]1CN(c2cccc(N3c4nc(Nc5ccc(N6CCN(C)CC6)cc5)ncc4[C@]4(C)COC(C)(C)C[C@H]34)n2)C(=O)O1 (single isomer, unassigned) [Example 598] | 100 to 1000 nM
26 | CNCc1ccnc(N2c3nc(Nc4ccc(N5CCOCC5)cc4)ncc3[C@]3(C)COC(C)(C)C[C@H]23)c1 (single isomer, unassigned) [Example 548] | ≥ 1000 nM
27 | CC1(C)C[C@H]2N(c3ccccn3)c3nc(Nc4ccc(N5CCN6CC[C@H]5C6)cc4)ncc3[C@@]2(C)CO1 [Example 809, (4bR,8aR)-N-(4-((5S)-1,4-diazabicyclo[3.2.1]octan-4-yl)phenyl)-4b,7,7-trimethyl-9-(pyridin-2-yl)-4b,5,7,8,8a,9-hexahydropyrano[3′,4′:4,5]pyrrolo[2,3-d]pyrimidin-2-amine] | < 10 nM
28 | CN1CC[C@@H](c2ccc(Nc3ncc4c(n3)N(c3cccc(N5CCCC5=O)n3)[C@H]3CC(C)(C)OC[C@@]43C)cc2)C1 [Example 643, 1-(6-((4bS,8aS)-4b,7,7-trimethyl-2-((4-((S)-1-methylpyrrolidin-3-yl)phenyl)amino)-4b,7,8,8a-tetrahydropyrano[3′,4′:4,5]pyrrolo[2,3-d]pyrimidin-9(5H)-yl)pyridin-2-yl)pyrrolidin-2-one] | 10 to 100 nM
29 | C[C@H]1CCC(=O)N1c1cccc(N2c3nc(Nc4ccc(N5C[C@H]6C[C@@H]5CN6C)cc4)ncc3[C@]3(C)COC(C)(C)C[C@H]23)n1 [Example 656, (S)-5-methyl-1-(6-((4bS,8aS)-4b,7,7-trimethyl-2-((4-((1R,4R)-5-methyl-2,5-diazabicyclo[2.2.1]heptan-2-yl)phenyl)amino)-4b,7,8,8a-tetrahydropyrano[3′,4′:4,5]pyrrolo[2,3-d]pyrimidin-9(5H)-yl)pyridin-2-yl)pyrrolidin-2-one] | 10 to 100 nM
30 | CN1CC[C@H](Oc2ccc(Nc3ncc4c(n3)N(c3cccc(C(C)(C)O)n3)[C@H]3CC(C)(C)OC[C@@]43C)cc2)C1 (single isomer, unassigned) [Example 422] | 10 to 100 nM
31 | CN[C@@H](C)c1cccc(N2c3nc(Nc4ccc(N5CCOCC5)cc4)ncc3[C@]3(C)COC(C)(C)C[C@H]23)n1 (single isomer, unassigned) [Example 538] | 10 to 100 nM
32 | CN1CC[C@@H](Oc2ccc(Nc3ncc4c(n3)N(c3cccc(C(C)(C)O)n3)[C@@H]3CC(C)(C)OC[C@]43C)cc2)C1 (single isomer, unassigned) [Example 424] | 10 to 100 nM
33 | CNCc1cccc(N2c3nc(Nc4ccc(N5CCOC[C@H]5C)cc4)ncc3[C@]3(C)COC(C)(C)C[C@H]23)n1 (single isomer, unassigned) [Example 474] | 100 to 1000 nM
34 | CN1CCN(c2cccc(N3c4nc(Nc5ccc(N6CCOCC6)cc5)ncc4[C@]4(C)COC(C)(C)C[C@H]34)n2)CC1 (single isomer, unassigned) [Example 536] | 10 to 100 nM
35 | CN[C@@H](C)c1cc(C)nc(N2c3nc(Nc4ccc(N5CCOCC5)cc4)ncc3[C@@]3(C)COC(C)(C)C[C@@H]23)c1 (single isomer, unassigned) [Example 560] | 10 to 100 nM
36 | CC1(C)C[C@H]2N(c3cccc(N=S(C)(C)=O)n3)c3nc(NC(=O)c4ccccc4F)ncc3[C@@]2(C)CO1 (single isomer, unassigned) [Example 409] | 100 to 1000 nM
37 | Cc1cc(Nc2ncc3c(n2)N(c2cccc([C@@H]4CCCN4)n2)[C@H]2CC(C)(C)OC[C@@]32C)ccc1N1CCOCC1 (single isomer, unassigned) [Example 530] | 10 to 100 nM
38 | CC1(C)C[C@H]2N(c3cccc([C@@H]4CNCCO4)n3)c3nc(Nc4ccc(N5CCOCC5)cc4)ncc3[C@@]2(C)CO1 [Example 735, (4bR,8aR)-4b,7,7-trimethyl-9-(6-((S)-morpholin-2-yl)pyridin-2-yl)-N-(4-morpholinophenyl)-4b,5,7,8,8a,9-hexahydropyrano[3′,4′:4,5]pyrrolo[2,3-d]pyrimidin-2-amine] | 10 to 100 nM
39 | CN1CC(c2ccc(Nc3ncc4c(n3)N(c3cccc(N5CCCC5=O)n3)[C@H]3CC(C)(C)OC[C@@]43C)cc2)C1 [Example 697, 1-(6-((4bS,8aS)-4b,7,7-trimethyl-2-((4-(1-methylazetidin-3-yl)phenyl)amino)-4b,7,8,8a-tetrahydropyrano[3′,4′:4,5]pyrrolo[2,3-d]pyrimidin-9(5H)-yl)pyridin-2-yl)pyrrolidin-2-one] | 10 to 100 nM
40 | CC1(C)C[C@H]2N(c3cccc(N=S(C)(C)=O)n3)c3nc(NC(=O)c4ccccn4)ncc3[C@@]2(C)CO1 (single isomer, unassigned) [Example 407] | 10 to 100 nM
